The subject of assay [1] is A549 (lung carcinoma cell line). Description: MTT cytotoxicity assay, A549. The note with it: read-out: IC50 against A549. Format: cell-based. How it is done:
(§1) The anticancer activity of compounds 5a–5o were screened according to the MTT assays. The MTT assays were performed as previously described[32]^,[33]. Anticancer activity of final compounds was assessed against five different cancer cell lines A549 (lung carcinoma cell line), HeLa (cervical cell line), MCF-7 (human breast adenocarcinoma cell line), HepG2 (human liver carcinoma cell line) and C6 (rat glioma cell line) cell lines as well as NIH3T3 (mouse embryo fibroblast cell line). Doxorubicin and Hoechst 33342 were used as the reference drugs in the MTT assays.
(§2) The benzimidazole-1,3,4-oxadiazole derivatives (5a-5o) were tested their cytotoxic effects in vitro using five cancer cell line A549 (lung carcinoma cell line), HeLa (cervical cell line), MCF-7 (human breast adenocarcinoma cell line), HepG2 (human liver carcinoma cell line) and C6 (rat glioma cell line) cell lines as well as NIH3T3 (mouse embryo fibroblast cell line). Doxorubicin and Hoechst 33342 were used for this study as a reference drugs.
(In general: Tetrazolium dyes change colour on reduction, which living cells bring about.)

The test system of assay [2] is MCF-7 (human breast adenocarcinoma cell line). Description: MTT cytotoxicity assay, MCF-7. Format: cell-based. The conditions noted are these: read-out: IC50 against MCF-7. How it is done:
as §1, §2

For assay [3], the system named is C6 (rat glioma cell line). Description: MTT cytotoxicity assay, C6. Format: cell-based. The conditions noted are these: read-out: IC50 against C6. Here is the method: as §1, §2
Assay [4] has as its system HepG2 (human liver carcinoma cell line). As to the kind of experiment: MTT cytotoxicity assay, HepG2. Format: cell-based. The conditions noted are these: read-out: IC50 against HepG2. Here is the method:
as §1, §2

Assay [5] deals with HeLa (cervical cell line). Description: MTT cytotoxicity assay, HeLa. Format: cell-based. The conditions noted are these: read-out: IC50 against HeLa. Here is the method:
as §1, §2

For assay [6], the system named is NIH3T3 (mouse embryo fibroblast cell line). Description: MTT cytotoxicity assay, NIH3T3 healthy cells. The note with it: read-out: IC50 against NIH3T3. Format: cell-based. Here is the method: The anticancer activity of compounds 5a–5o were screened according to the MTT assays. The MTT assays were performed as previously described[32]^,[33]. Anticancer activity of final compounds was assessed against five different cancer cell lines A549 (lung carcinoma cell line), HeLa (cervical cell line), MCF-7 (human breast adenocarcinoma cell line), HepG2 (human liver carcinoma cell line) and C6 (rat glioma cell line) cell lines as well as NIH3T3 (mouse embryo fibroblast cell line). Doxorubicin and Hoechst 33342 were used as the reference drugs in the MTT assays. It is crucial that an anticancer agent affects the cancer cell line but having minimal or no side-effect on healthy cells. For this purpose, the cytotoxic effects of the active compounds on the NIH3T3 cell line were investigated (Table 2).

Assay [7] relates to C6 cells. Description: DNA synthesis inhibition assay (BrdU), C6. Format: cell-based, rat. The note with it: lower dose (IC50/2), 48 h vs 24 h incubation. Here is the method: (§3) The BrdU cell proliferation method was performed to analyse the effects of the active compounds on proliferation of cancer cells. Cancer cells were seeded into the 96-well plates at a density of 1 × 10^4 cells. Compounds were added into the each well at three different concentrations (IC50/2, IC50 and 2xIC50) and the plates were incubated for 24 h. At the end of the incubation period, BrdU solution was added and cells were reincubated for 2 h at 37 °C. Anti-BrdU-POD ([…]) was added and the mixture was incubated for 90 min. Microplates were washed with PBS for three times. After adding substrate solution, the mixture was incubated for 15 min. OD of the wells were determined at 492 nm. Proliferation of control cells was assessed as 100% and growth inhibition % of cells, treated with test compounds and […] were calculated.
(§4) According to the MTT assay, compound 5n for A549 cell line; compounds 5a, 5d, 5e, 5o for MCF-7 cell line; compound 5k for C6 cell line; compound 5a for HepG2 cell line; compounds 5b, 5l and 5n for HeLa cell line were selected for the DNA synthesis inhibition assay. A549, C6, MCF-7, HepG2 and HeLa cells were incubated with three different concentrations (IC50/2, IC50, and […]) of the compounds for 24 and 48 h time periods. […] Doxorubicin was used as positive control.

Assay [8] concerns C6 cell line. As to the kind of experiment: Flow cytometric analysis (Annexin V/PI), C6. The conditions noted are these: at IC50 concentrations. Format: cell-based, rat. How it is done: (§5) Death pathway of the carcinogenic cell lines was detected by Annexin V-FITC Apoptosis Detection Kit (BD, Pharmingen) as reported previously described. […] FCS Express software was used to display the percent of normal and apoptotic cells at different stages. […] The experiments were carried out in triplicates.
(§6) Annexin V/PI staining on tested cancer cells treated with the active compounds was performed to investigate induction of apoptosis. […] According to the MTT assay, compound 5n for A549 cell line; compounds 5a, 5d, 5e, 5o for MCF-7 cell line; compound 5k for C6 cell line; compound 5a for HepG2 cell line; compounds 5b, 5l and 5n for HeLa cell line were selected for the flow cytometric analysis. Furthermore, flow cytometry studies were performed for reference drug doxorubicin. Flow cytometric analysis diagrams of tested compounds and doxorubicin at IC50/2, IC50, and 2xIC50 concentrations on cancer cells were presented in Figures 7–11.
For orientation: Flow cytometry measures light scatter and fluorescence of single cells or particles in a stream.

Assay [9] concerns the target T1, Topoisomerase I (Homo sapiens, UniProt P11387).
T1 construct: purchased TopoGen TG1018-2
T1 sequence (P11387 1-765): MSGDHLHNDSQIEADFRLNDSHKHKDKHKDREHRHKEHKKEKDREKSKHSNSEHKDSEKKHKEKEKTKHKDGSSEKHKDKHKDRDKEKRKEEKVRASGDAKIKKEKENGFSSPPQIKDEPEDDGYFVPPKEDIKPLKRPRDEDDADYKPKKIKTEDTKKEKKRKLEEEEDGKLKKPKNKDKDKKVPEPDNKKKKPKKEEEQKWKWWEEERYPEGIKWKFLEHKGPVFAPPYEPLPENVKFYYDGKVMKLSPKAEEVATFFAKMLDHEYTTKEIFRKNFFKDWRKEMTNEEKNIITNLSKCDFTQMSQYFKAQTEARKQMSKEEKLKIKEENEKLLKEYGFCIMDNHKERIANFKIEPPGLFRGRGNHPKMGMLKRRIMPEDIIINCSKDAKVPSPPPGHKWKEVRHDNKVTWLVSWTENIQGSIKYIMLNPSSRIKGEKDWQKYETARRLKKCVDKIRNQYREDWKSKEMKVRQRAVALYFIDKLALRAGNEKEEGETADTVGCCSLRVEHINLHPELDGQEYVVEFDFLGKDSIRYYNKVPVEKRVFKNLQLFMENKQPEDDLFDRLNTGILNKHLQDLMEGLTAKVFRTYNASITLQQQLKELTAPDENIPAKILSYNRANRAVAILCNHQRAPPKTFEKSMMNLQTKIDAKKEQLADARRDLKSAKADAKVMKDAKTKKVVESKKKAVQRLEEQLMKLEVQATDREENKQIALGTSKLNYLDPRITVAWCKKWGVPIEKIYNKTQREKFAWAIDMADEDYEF
Description: DNA topoisomerase I assay (relaxation of supercoiled plasmid DNA, agarose gel). Format: biochemical. The note with it: agarose gel electrophoresis, camptothecin positive control, Figure 12. How it is done:
The topoisomerase I inhibition activities of final compounds were measured as relaxation of supercoiled plasmid DNA using agarose gel electrophoresis and camptothecin was used as a positive control. The assay was carried out in a final volume of 20 µl reaction volume containing 2 µl of 10xTGS Buffer, 6 µl water, 2 µl supercoiled plasmid DNA, 2 µl test compound, 2 µl of Top1, 2 ul 10% SDS, 2 µl proteinase K, 2 µl DNA loading dye. After incubation of reaction mixtures at 37 °C for 30 min, electrophoresis was done on a 1% agarose gel at a potential 50 V for 75 min using 1xTAE buffer.
To determine whether the DNA intercalation properties of compounds 5a, 5b, 5d, 5e, 5k, 5l, 5n and 5o might result in Topo I inhibition, agarose gel electrophores is assay was performed to evaluate the Topo I inhibitory activity of them via agarose-gel electrophoresis and CPT was used as the positive control. The TopoGEN Topoisomerase I Drug Screening Kit were optimised and implemented to accomplish this goal.
In a previous studies, it was said that the compounds poisoning topoisomerase caused the formation of nick bands in such gel appearances, while the formation of Supercoiled bands was said to be caused by catalytic inhibitors that bound to either DNA or enzyme[40]^,[41].

Assay [10] deals with A549 cells. As to the kind of experiment: DNA synthesis inhibition assay (BrdU), A549. Format: cell-based. The note with it: 48 h. How it is done: as §3, §4
The test system of assay [11] is HeLa cells. Description: DNA synthesis inhibition assay (BrdU), HeLa. Format: cell-based. The conditions noted are these: 48 h, 5b 0.698, 5l 0.224, 5n 0.205, doxorubicin 14.280 µg/mL. Here is the method:
as §3, §4

Assay [12] deals with A549 cell line. As to the kind of experiment: Flow cytometric analysis (Annexin V/PI), A549. Format: cell-based. The conditions noted are these: at IC50 concentrations. How it is done:
as §5, §6

Assay [13] relates to HeLa cell line. As to the kind of experiment: Flow cytometric analysis (Annexin V/PI), HeLa. Format: cell-based. Here is the method:
as §5, §6

Read-outs that look alike come from different tables or passages of the source.

As to `CCOc1ccc(-c2nc3ccc(-c4nnc(SCC(=O)N5CCN(C)CC5)o4)cc3[nH]2)cc1` [5k, 2-((5-(2-(4-Ethoxyphenyl)-1H-benzo[d]imidazol-6-yl)-1,3,4-oxadiazol-2-yl)thio)-1–(4-methyl-piperazin-1-yl)-ethane-1-on], the IC50 in [1] (Homo sapiens, A549, MTT assay) was 22.3 ± 1.05 µM; in assay [2] (Homo sapiens, MCF7, MCF-7 cell line) it was 38.7 ± 1.88 µM; in [3] (Rattus norvegicus), 3.2 ± 0.152 µM; in assay [4] (Homo sapiens), no less than 100 µM; in assay [5] (Homo sapiens), 11.2 ± 0.467 µM; in [6] (Mus musculus), 74.6 ± 3.63 µM. The “DNA synthesis inhibition at 48 h relative to 24 h” value in assay [7] is reported as “eight times higher”. Also, the “percentage of apoptotic cells” value in assay [8] came out at 12.3%. Besides, the “Topo I inhibition activity” value in assay [9] was “potent topo I inhibition activity”.
With `CCOc1ccc(-c2nc3ccc(-c4nnc(SCC(=O)N5CCN(c6ccccn6)CC5)o4)cc3[nH]2)cc1` [5n], the IC50 is 7.39 ± 0.325 µM in assay [1] (MTT assay); no less than 100 µM in [2] (MCF-7 cell line); no less than 100 µM in assay [3]; no less than 100 µM in assay [4]; 0.205 ± 0.01 µM in [5]; 189 ± 8.73 µM in assay [6]. The “% DNA synthesis inhibition” value in assay [10] (5n at 5.39 µg/mL, doxorubicin at 6.21 µg/mL) is reported as 66.00%; in assay [10] (5n at 7.39 µg/mL, doxorubicin at 12.42 µg/mL) it was 68.25%; in assay [10] (5n at 14.77 µg/mL, doxorubicin at 24.84 µg/mL) it was 78.17%; in [11], 57.65%. The entries for the “percentage of apoptotic cells” value in assay [12] and in [13] were 13% and 15.2%, respectively. For the same compound, in assay [9], the “Topo I inhibition activity” value was “potent topo I inhibition activity”.

For orientation: IC50 means the concentration needed to halve the response being measured.

The values above are taken from publication PMC7470102, “Synthesis, anticancer evaluation and molecular docking studies of new benzimidazole- 1,3,4-oxadiazole derivatives as human topoisomerase types I poison” (Journal of Enzyme Inhibition and Medicinal Chemistry, 2020).
